Experimental findings from patent publication US5683999A, “Cyclic urea HIV protease inhibitors” (The DuPont Merck Pharmaceutical Company, priority 1996, dated 1997) are described below.

Values after ≈ are worked out from the molar mass of the structure shown.

This assay concerns HIV-1 (RF). Nature of the assay: HIV RNA Assay (HIV-1 infected MT-2 cells). The note with it: Human immunodeficiency virus 1, MT2, 72 h; HIV-1 (RF) infected MT-2 cells, 3 days of culture; read-out: IC90 value (concentration of compound required to reduce the HIV RNA level by 90%). Type of assay: cell-based. The procedure:
DNA Plasmids and in vitro RNA transcripts
Plasmid pDAB 72 containing both gag and pol sequences of BH10 (bp 113-1816) cloned into PTZ 19R was prepared according to Erickson-Viitanen et al., AIDS Research and Human Retroviruses (1989) 5:577. The plasmid was linearized with Bam HI prior to the generation of in vitro RNA transcripts using the Riboprobe Gemini system II kit (Promega) with T7 RNA polymerase. Synthesized RNA was purified by treatment with RNase free DNAse (Promega), phenol-chloroform extraction, and ethanol precipitation. RNA transcripts were dissolved in water, and stored a -70° C. The concentration of RNA was determined from the A260.
Biotinylated capture probes were purified by HPLC after synthesis on an Applied Biosystems (Foster City, Calif.) DNA synthesizer by addition of biotin to the 5' terminal end of the oligonucleotide, using the biotin-phosphoramidite reagent of Cocuzza, Tet. Lett. (1989) 30:6287. […]
MT-2, CEM, and H9 cells were maintained in RPMI 1640 supplemented with 5% fetal calf serum (FCS), 2 mM L-glutamine and 50 μg/mL gentamycin, all from Gibco. […] Infectious titers of HIV-1(RF) stocks were 1-3×10^7 PFU (plaque forming units)/mL as measured by plaque assay on MT-2 cells (see below). […]

On to `Nc1ccn([C@H]2CC[C@@H](CO)O2)c(=O)n1` [ddC, 2',3'-dideoxycytidine], for which the IC90 is 0.2 µg/mL (≈ 0.947 µM).
